Experimental data as given in patent US9884043B2, “RORgammaT inhibitors” (Merck Sharp & Dohme Corp., priority 2011, dated 2018).

molecular target: T1, HIS-tagged RORγ-LBD (Homo sapiens, UniProt P51449); experiment: TR-FRET assay (Protocol C), purified RORγ-LBD / biotinylated SRC1 LXXLL peptide; type: biochemical; details: purified RORγ-LBD 3 nM, SRC1 peptide 100 nM, overnight at 4° C.
T1 construct: HIS-tagged RORγ-LBD was recombinantly expressed in SF9 cells using a baculovirus expression system; made in house; host or cells: SF9 cells, baculovirus; crude lysate used
T1 sequence (P51449 269-508 limits assumed): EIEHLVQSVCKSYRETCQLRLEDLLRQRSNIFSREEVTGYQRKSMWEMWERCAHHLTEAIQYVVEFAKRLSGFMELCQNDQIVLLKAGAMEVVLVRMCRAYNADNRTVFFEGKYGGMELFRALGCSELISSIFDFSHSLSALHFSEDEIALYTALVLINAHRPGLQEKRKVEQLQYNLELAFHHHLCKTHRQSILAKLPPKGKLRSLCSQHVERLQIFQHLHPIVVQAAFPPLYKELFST
Source text: Activation of RORgammaT activity can be measured using e.g. biochemical TR-FRET assay. In such an assay, interaction of cofactor-derived peptides with human RORgammaT-Ligand Binding Domain (LBD) can be measured. The TR-FRET technique is a sensitive biochemical proximity assay that will give information concerning the interaction of a ligand with the LBD, in the presence of cofactor derived peptides (Zhou et al., Methods 25:54-61, 2001).
To identify novel antagonists of RORgammaT, an assay was developed which employs the interaction of RORgammaT with its co-activator peptide SRC1_2. This peptide mimics the recruitment of co-activators to RORgammaT through its interaction with the LXXLL (SEQ ID NO:2) (eg NR box) motifs (Xie et al., J. Immunol. 175: 3800-09, 2005; Kurebayashi et al., Biochem. Biophys. Res. Commun. 315: 919-27, 2004; Jin et al., Mol. Endocrinology 24:923-29, 2010). The assay was run following three slightly different protocols, i.e. Protocol A, Protocol B, and Protocol C, which are described below.
TR-Fret Assay (Protocol C)
HIS-tagged RORγ-LBD protein was expressed in SF9 cells using a baculovirus expression system. The RORγ-LBD protein was purified by glutathione sepharose chromatography. Separately, SF9 cells not expressing any recombinant protein were lysed and the lysate was added to the purified RORγ-LBD at 0.25 μl lysate (from 10,000 SF9 cells)/nM purified protein. The mixture was then diluted in assay buffer (50 mM Tris pH 7.0, 50 mM KCl, 1 mM EDTA, 0.1 mM DTT) to obtain RORγ-LBD final concentration of 3 nM in 384-well assay plate.
Compounds to be tested were injected to the assay plate using Acoustic Droplet Ejection technology by Echo 550 liquid handler (Labcyte, Calif.). A stock of biotinylated-LXXLL (SEQ ID NO:2) peptide from coactivator SRC1 (Biotin-[…]) (SEQ ID NO: 1) was prepared in assay buffer and added to each well (100 nM final concentration). A solution of Europium tagged anti-HIS antibody (1.25 nM final concentration) and APC conjugated streptavidin (8 nM final concentration) were also added to each well.
The final assay mixture was incubated for overnight at 4° C., and the fluorescence signal was measured on an Envision plate reader: (Excitation filter=340 nm; APC emission=665 nm; Europium emission=615 nm; dichroic mirror=D400/D630; delay time=100 μs, integration time=200 μs). IC50 values for test compounds were calculated from the quotient of the fluorescence signal at 665 nm divided by the fluorescence signal at 615 nm.

IC50 [nM]	SMILES
< 50	O=C(O)c1ccc(-c2nn(C(=O)c3c(Cl)cccc3C(F)(F)F)c3cc(C(=O)N4CCCC4)ccc23)cc1 [Example 25V, 4-(1-(2-chloro-6-(trifluoromethyl)benzoyl)-6-(pyrrolidine-1-carbonyl)-1H-indazol-3-yl)benzoic acid]
50 to 500	COc1cccc(F)c1C(=O)n1nc(-c2ccc(C(=O)O)cc2)c2cccc(F)c21 [Example 24AV, 4-(7-fluoro-1-(2-fluoro-6-methoxybenzoyl)-1H-indazol-3-yl)benzoic acid]
< 50	O=C(O)c1cc(F)c(-c2nn(C(=O)c3c(Cl)cccc3C(F)(F)F)c3cccc(F)c23)cc1O [Example 26F, 4-(1-(2-chloro-6-(trifluoromethyl)benzoyl)-4-fluoro-1H-indazol-3-yl)-5-fluoro-2-hydroxybenzoic acid]
< 50	O=C(O)c1ccc(-c2nn(C(=O)c3c(Cl)cccc3C(F)(F)F)c3ccccc23)c(Cl)c1 [Example 24AS, 3-chloro-4-(1-(2-chloro-6-(trifluoromethyl)-benzoyl)-1H-indazol-3-yl)benzoic acid]
< 50	COc1cccc(F)c1C(=O)n1nc(-c2ccc(C(=O)O)cc2F)c2ccccc21 [Example 24AU, sodium 3-fluoro-4-(1-(2-fluoro-6-methoxybenzoyl)-1H-indazol-3-yl)benzoate]
< 50	COCCCNC(=O)c1ccc2c(-c3ccc(C(=O)O)cc3F)nn(C(=O)c3c(Cl)cccc3C(F)(F)F)c2c1 [Example 25N, 4-(1-(2-chloro-6-(trifluoromethyl)benzoyl)-6-(3-methoxypropyl-carbamoyl)-1H-indazol-3-yl)-3-fluorobenzoic acid]
50 to 500	COc1cccc(F)c1C(=O)n1nc(-c2ccc(C(=O)O)cc2F)c2cccc(F)c21 [Example 24AW, 3-fluoro-4-(7-fluoro-1-(2-fluoro-6-methoxybenzoyl)-1H-indazol-3-yl)benzoic acid]
